Data taken from ChEMBL document CHEMBL1201862, “PubChem BioAssay data set” (2004).
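Following 48 hours of exposure in 96-well plates, responses at five concentrations were used to interpolate endpoints linearly. At the GI50, growth is halved.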 Activity calls are given as the source filed them. Cut-off read from the data, not from the text of the source: active = GI50 up to about 1.1 µM and inactive = higher.

Legend:
Test in all cases: NCI-60 cell line screen, 48 h
[1] = test system: 786-0
[2] = test system: A498
[3] = test system: BT-549
[4] = test system: COLO 205
[5] = test system: DU-145
[6] = test system: HOP-62
[7] = test system: HOP-92
[8] = test system: IGROV-1
[9] = test system: M14
[10] = test system: MDA-MB-231
[11] = test system: NCI-H23
[12] = test system: NCI/ADR-RES
[13] = test system: OVCAR-5
[14] = test system: OVCAR-8
[15] = test system: SK-MEL-2
[16] = test system: SN12C
[17] = test system: SW-620
[18] = test system: T47D
[19] = test system: U-251
[20] = test system: NCI-H460

Measured: GI50

O=C1NC(=O)c2ccccc2/C1=C/c1ccc2c(c1)OCO2
inactive: [1] 8.02 µM | [2] > 100 µM | [3] 20.9 µM | [4] > 10 µM | [5] 40.3 µM | [6] 11.2 µM | [7] 27.1 µM | [8] 23.7 µM | [9] 24 µM | [10] 12.3 µM | [11] 22.3 µM | [12] 17.9 µM | [13] 29.2 µM | [14] 28 µM | [15] 24.6 µM | [16] 19.9 µM | [17] 30.5 µM | [18] > 100 µM

Oc1c(/N=N\c2ccccc2)c2cccc3ccc4cccc1c4c32
inactive: [1] 43.7 µM | [2] > 100 µM | [3] > 100 µM | [4] > 100 µM | [5] > 100 µM | [6] 29.6 µM | [7] > 100 µM | [8] > 100 µM | [9] > 100 µM | [10] 94.4 µM | [11] > 100 µM | [12] > 100 µM | [13] > 100 µM | [14] 40.2 µM | [15] > 100 µM | [16] > 100 µM | [17] > 100 µM | [18] > 100 µM | [19] 42.7 µM

CNC(c1ccncc1)C(NC)c1ccncc1 (stereo unspecified)
inactive: [1] > 100 µM | [2] > 100 µM | [3] > 100 µM | [4] > 100 µM | [5] > 100 µM | [6] > 100 µM | [8] > 100 µM | [9] > 100 µM | [10] > 100 µM | [11] > 100 µM | [12] > 100 µM | [13] > 100 µM | [14] > 100 µM | [15] > 100 µM | [16] > 100 µM | [17] > 100 µM | [18] > 100 µM | [19] > 100 µM

CC1=NN(C(=O)CC(=O)Nc2ccc(C)cc2)C(=O)C1/N=N/c1ccc(C(=O)O)cc1 (stereo unspecified)
inactive: [1] > 100 µM | [2] > 100 µM | [3] > 100 µM | [4] > 100 µM | [5] > 100 µM | [6] > 100 µM | [7] > 100 µM | [8] > 100 µM | [9] > 100 µM | [10] > 100 µM | [11] > 100 µM | [12] > 100 µM | [13] > 100 µM | [14] > 100 µM | [15] > 100 µM | [16] > 100 µM | [17] > 100 µM | [18] > 100 µM | [19] > 100 µM

N#CCCN(CCC#N)c1ccc(C(=N/c2ccc(F)cc2)/N=N/c2ccc(Cl)cc2)cc1
inactive: [1] > 100 µM | [2] > 100 µM | [3] > 100 µM | [4] > 100 µM | [5] > 100 µM | [6] > 100 µM | [7] > 100 µM | [8] > 100 µM | [9] > 100 µM | [10] > 100 µM | [11] > 100 µM | [20] > 100 µM | [12] > 100 µM | [13] > 100 µM | [14] > 100 µM | [16] > 100 µM | [17] > 100 µM | [18] > 100 µM | [19] > 100 µM

CCc1n[nH]c(=O)n1CCO
inactive: [1] > 100 µM | [2] > 100 µM | [3] > 100 µM | [4] > 100 µM | [5] > 100 µM | [7] > 100 µM | [8] > 100 µM | [9] > 100 µM | [10] > 100 µM | [11] > 100 µM | [20] > 100 µM | [12] > 100 µM | [13] > 100 µM | [14] > 100 µM | [15] > 100 µM | [16] > 100 µM | [17] > 100 µM | [18] > 100 µM | [19] > 100 µM

N#CCN(CC#N)C1CC=CCC1N(CC#N)CC#N (stereo unspecified)
inactive: [1] > 100 µM | [3] > 100 µM | [4] > 100 µM | [5] > 100 µM | [6] > 100 µM | [7] > 100 µM | [8] > 100 µM | [9] > 100 µM | [10] > 100 µM | [11] > 100 µM | [20] > 100 µM | [12] > 100 µM | [13] > 100 µM | [14] > 100 µM | [15] > 100 µM | [16] > 100 µM | [17] > 100 µM | [18] > 100 µM | [19] > 100 µM
